Here are results for 14 molecules from ChEMBL document CHEMBL5370558, “Modifications of geldanamycin via CuAAC altering affinity to chaperone protein Hsp90 and cytotoxicity” (Eur J Med Chem, 2023).

Structures are written as SMILES.

The nature of data set [1]: Selectivity index, ratio of IC50 for cytotoxicity against human HDF cells to IC50 for anticancer activity against human PC-3 cells. Format: toxicity, cell-based. Particulars: HDF cells versus PC-3 cells, read-out: Ratio IC50.
The nature of data set [2]: Cytotoxicity against human HDF cells assessed as cell growth inhibition incubated for 72 hrs by SRB assay. It is filed as toxicity, cell-based. Particulars: HDF cells (normal human dermal fibroblasts, NHDF).
Data set [3] can be described thus: Selectivity index, ratio of IC50 for cytotoxicity against human HDF cells to IC50 for anticancer activity against human SK-OV-3 cells. Format: cell-based. Particulars: HDF cells versus SK-OV-3 cells, read-out: Ratio IC50.
Data set [4] can be described thus: Selectivity index, ratio of IC50 for cytotoxicity against human HDF cells to IC50 for anticancer activity against human SK-BR-3 cells. Conditions: HDF cells versus SK-BR-3 cells, read-out: Ratio IC50. It is filed as toxicity, cell-based.
The next data set relates to SK-OV-3. Put plainly: Anticancer activity against human SK-OV-3 cells assessed as cell growth inhibition incubated for 72 hrs by SRB assay. It is filed as functional, cell-based. Particulars: Homo sapiens, SK-OV-3, 72 h. Background: The SRB assay estimates cell density from bound dye.
Another data set concerns PC-3. Put plainly: Anticancer activity against human PC-3 cells assessed as cell growth inhibition incubated for 72 hrs by SRB assay. Format: functional, cell-based. Particulars: Homo sapiens, PC-3, 72 h.
The next data set has as its system SK-BR-3. Nature of the data set: Anticancer activity against human SK-BR-3 cells assessed as cell growth inhibition incubated for 72 hrs by SRB assay. It is filed as functional, cell-based. Conditions: Homo sapiens, SK-BR-3, 72 h.

What is called IC50 is the concentration at which inhibition is half-maximal.

On to `CO[C@H]1/C=C\C=C(/C)C(=O)NC2=CC(=O)C(NCc3cn(Cc4ccc(C(F)(F)F)cc4)nn3)=C(C[C@@H](C)C[C@H](OC)[C@H](O)[C@@H](C)/C=C(\C)[C@@H]1OC(N)=O)C2=O`, for which the selectivity ratio was determined as 1.55 in data set [1], 1.36 in data set [3] and 1.57 in data set [4]. Also, in data set [2], the IC50 at 72 h turned out to be 1.24 µM. Also, the IC50 in the data set with SK-OV-3 was found to be 0.91 µM; with PC-3, 0.8 µM; with SK-BR-3, 0.79 µM.

`CO[C@H]1/C=C\C=C(/C)C(=O)NC2=CC(=O)C(NCc3cn([C@]4(C#N)O[C@H](COC(C)=O)[C@H](OC(C)=O)[C@H](OC(C)=O)[C@H]4OC(C)=O)nn3)=C(C[C@@H](C)C[C@H](OC)[C@H](O)[C@@H](C)/C=C(\C)[C@@H]1OC(N)=O)C2=O`: the selectivity ratio in data set [1] was found to be 1.64; in data set [3], 1.33; in data set [4], 1.37. Also, the IC50 at 72 h in data set [2] was 1.25 µM. Moreover, the IC50 in the data set with SK-OV-3 came out at 0.94 µM; with PC-3, 0.76 µM; with SK-BR-3 it was 0.91 µM.

In the case of `CO[C@H]1/C=C\C=C(/C)C(=O)NC2=CC(=O)C(NCc3cn(C4CCCCCC4)nn3)=C(C[C@@H](C)C[C@H](OC)[C@H](O)[C@@H](C)/C=C(\C)[C@@H]1OC(N)=O)C2=O`, the selectivity ratio in data set [1] was 1.62; in data set [3], 1.52; in data set [4], 1.65. Besides, in data set [2], the IC50 at 72 h was 1.7 µM. Also, the IC50 in the data set on SK-OV-3 was determined as 1.12 µM; in the data set on PC-3, 1.05 µM; with SK-BR-3, 1.03 µM.

Consider `COC(=O)C[C@H]1O[C@@H](n2cc(CNC3=C4C[C@@H](C)C[C@H](OC)[C@H](O)[C@@H](C)/C=C(\C)[C@H](OC(N)=O)[C@@H](OC)/C=C\C=C(/C)C(=O)NC(=CC3=O)C4=O)nn2)[C@H](O)[C@@H](O)[C@@H]1O`, for which the results for the selectivity ratio in data set [1], in data set [3] and in data set [4] were 1.65, 1.49 and 1.55, respectively. Also, the IC50 at 72 h in data set [2] is 2.19 µM. The IC50 in the data set with SK-OV-3 turned out to be 1.47 µM; in the data set with PC-3 it was 1.33 µM; in the data set with SK-BR-3, 1.41 µM.

In the case of `CO[C@H]1/C=C\C=C(/C)C(=O)NC2=CC(=O)C(NCCn3cc(-c4ccsc4)nn3)=C(C[C@@H](C)C[C@H](OC)[C@H](O)[C@@H](C)/C=C(\C)[C@@H]1OC(N)=O)C2=O`, the selectivity ratio in data set [1] turned out to be 2.09; in data set [3], 2.2; in data set [4] it was 2.23. The IC50 at 72 h in data set [2] is 2.07 µM. Moreover, the half-maximal inhibitory concentration (IC50) with SK-OV-3 amounted to 0.94 µM; in the data set with PC-3, 0.99 µM; in the data set with SK-BR-3 it was 0.93 µM.

With `CO[C@H]1/C=C\C=C(/C)C(=O)NC2=CC(=O)C(NCc3cn(Cc4cccc(C#N)c4)nn3)=C(C[C@@H](C)C[C@H](OC)[C@H](O)[C@@H](C)/C=C(\C)[C@@H]1OC(N)=O)C2=O`, the selectivity ratio in data set [1] was 1.65; in data set [3], 1.62; in data set [4], 1.65. Besides, in data set [2], the IC50 at 72 h was 7.44 µM. In addition, the IC50 in the data set on SK-OV-3 is 4.6 µM; in the data set with PC-3 it was 4.51 µM; with SK-BR-3, 4.51 µM.

As to `CO[C@H]1/C=C\C=C(/C)C(=O)NC2=CC(=O)C(NCCn3cc(C(=O)O)nn3)=C(C[C@@H](C)C[C@H](OC)[C@H](O)[C@@H](C)/C=C(\C)[C@@H]1OC(N)=O)C2=O`, the values for the selectivity ratio in data set [1], in data set [3] and in data set [4] were 2.06, 2.06 and 2.21, respectively. In addition, the IC50 at 72 h in data set [2] turned out to be 1.79 µM. In addition, the figures for the concentration for half-maximal inhibition (IC50) with SK-OV-3, with PC-3 and in the data set on SK-BR-3 were 0.87 µM, 0.87 µM and 0.81 µM, respectively.

Consider `CO[C@H]1/C=C\C=C(/C)C(=O)NC2=CC(=O)C(NCc3cn(Cc4ccsc4Br)nn3)=C(C[C@@H](C)C[C@H](OC)[C@H](O)[C@@H](C)/C=C(\C)[C@@H]1OC(N)=O)C2=O`, for which the selectivity ratio stood at 1.53 in data set [1], 1.7 in data set [3] and 1.65 in data set [4]. Further, the IC50 at 72 h in data set [2] was determined as 1.73 µM. Besides, the IC50 with SK-OV-3 was found to be 1.02 µM; in the data set on PC-3 it was 1.13 µM; with SK-BR-3 it was 1.05 µM.

With `CO[C@H]1/C=C\C=C(/C)C(=O)NC2=CC(=O)C(NCc3cn(Cc4ccccc4)nn3)=C(C[C@@H](C)C[C@H](OC)[C@H](O)[C@@H](C)/C=C(\C)[C@@H]1OC(N)=O)C2=O`, the selectivity ratio in data set [1] amounted to 2.46; in data set [3], 2.03; in data set [4], 2.56. For the same molecule, the IC50 at 72 h in data set [2] stood at 1.28 µM. Moreover, the IC50 in the data set on SK-OV-3 came out at 0.63 µM; in the data set on PC-3, 0.52 µM; in the data set on SK-BR-3, 0.5 µM.

Take `CO[C@H]1/C=C\C=C(/C)C(=O)NC2=CC(=O)C(NCc3cn([C@@H]4O[C@H](CO)[C@@H](O)[C@H](O)[C@H]4O)nn3)=C(C[C@@H](C)C[C@H](OC)[C@H](O)[C@@H](C)/C=C(\C)[C@@H]1OC(N)=O)C2=O`: the selectivity ratio in data set [1] was found to be 1.68; in data set [3], 1.87; in data set [4] it was 1.36. Further, the IC50 at 72 h in data set [2] worked out at 1.01 µM. Moreover, the IC50 in the data set on SK-OV-3 stood at 0.54 µM; in the data set on PC-3, 0.6 µM; in the data set on SK-BR-3, 0.74 µM.

For `CO[C@H]1/C=C\C=C(/C)C(=O)NC2=CC(=O)C(NCc3cn([C@@H]4OC[C@@H](OC(C)=O)[C@H](OC(C)=O)[C@H]4OC(C)=O)nn3)=C(C[C@@H](C)C[C@H](OC)[C@H](O)[C@@H](C)/C=C(\C)[C@@H]1OC(N)=O)C2=O`, the selectivity ratio in data set [1] came to 1.3; in data set [3], 1.23; in data set [4], 1.05. The IC50 at 72 h in data set [2] stood at 4.59 µM. The IC50 in the data set with SK-OV-3 stood at 3.73 µM; in the data set with PC-3 it was 3.52 µM; in the data set with SK-BR-3, 4.36 µM.

Consider `CO[C@H]1/C=C\C=C(/C)C(=O)NC2=CC(=O)C(NCCN=[N+]=[N-])=C(C[C@@H](C)C[C@H](OC)[C@H](O)[C@@H](C)/C=C(\C)[C@@H]1OC(N)=O)C2=O`, for which the selectivity ratio was 2.26 in data set [1], 2.17 in data set [3] and 2.19 in data set [4]. The IC50 at 72 h in data set [2] worked out at 2.06 µM. For the same molecule, the figures for the IC50 in the data set on SK-OV-3, in the data set on PC-3 and with SK-BR-3 were 0.95 µM, 0.91 µM and 0.94 µM, respectively.

Take `CO[C@H]1/C=C\C=C(/C)C(=O)NC2=CC(=O)C(NCc3cn([C@@H]4O[C@H](CO)[C@@H](O[C@@H]5O[C@H](CO)[C@H](O)[C@H](O)[C@H]5O)[C@H](O)[C@H]4O)nn3)=C(C[C@@H](C)C[C@H](OC)[C@H](O)[C@@H](C)/C=C(\C)[C@@H]1OC(N)=O)C2=O`: the selectivity ratio worked out at 1.45 in data set [1], 1.45 in data set [3] and 1.44 in data set [4]. In addition, the IC50 at 72 h in data set [2] stood at 4.11 µM. In addition, the IC50 in the data set on SK-OV-3 came out at 2.84 µM; in the data set with PC-3, 2.83 µM; with SK-BR-3, 2.85 µM.

As for `CO[C@H]1/C=C\C=C(/C)C(=O)NC2=CC(=O)C(NCc3cn(Cc4ccc(C#N)cc4)nn3)=C(C[C@@H](C)C[C@H](OC)[C@H](O)[C@@H](C)/C=C(\C)[C@@H]1OC(N)=O)C2=O`, the selectivity ratio worked out at 2.09 in data set [1], 1.89 in data set [3] and 1.91 in data set [4]. Moreover, in data set [2], the IC50 at 72 h was 1.78 µM. For the same molecule, the IC50 is 0.94 µM in the data set on SK-OV-3, 0.85 µM with PC-3 and 0.93 µM in the data set with SK-BR-3.
